Activity calls are given as the source filed them. No cut-off for these calls is given here.
Key:
[1] = Inhibition of recombinant full length HIV-1 nucleocapsid assessed as inhibition of nucleocapsid-mediated melting of cTAR DNA measured 3 times with 1 min interval by FRET based assay; design: species or system Human immunodeficiency virus 1
[2] = test system: Human immunodeficiency virus 1; experiment: Binding affinity to HIV-1 29-mer TAR RNA assessed as increase in melting temperature at 10 uM by fluorescence quenching assay
[3] = test system: Human immunodeficiency virus 1; experiment: Binding affinity to HIV-1 cTAR DNA assessed as increase in melting temperature at 10 uM by fluorescence quenching assay
[4] = test system: Human immunodeficiency virus 1; experiment: Inhibition of recombinant full length HIV-1 nucleocapsid assessed as inhibition of TAR RNA /cTAR DNA annealing at 50 to 100 uM preincubated with oligonucleotides for 15 mins followed by nucleocapsid addition measured after 15 mins by NAME assay
[5] = test system: Human immunodeficiency virus 1; experiment: Binding affinity to HIV-1 cTAR DNA-29-mer TAR RNA duplex assessed as increase in melting temperature at 10 uM by fluorescence quenching assay
[6] = Inhibition of recombinant full length HIV-1 nucleocapsid assessed as inhibition of nucleocapsid-mediated melting of TAR RNA measured 3 times with 1 min interval by FRET based assay; design: species or system Human immunodeficiency virus 1
[7] = Inhibition of recombinant full length HIV-1 nucleocapsid assessed as inhibition of TAR RNA/cTAR DNA annealing preincubated with oligonucleotides for 15 mins followed by nucleocapsid addition measured after 15 mins by NAME assay; design: species or system Human immunodeficiency virus 1
[8] = test system: Human immunodeficiency virus 1; experiment: Inhibition of recombinant full length HIV-1 nucleocapsid assessed as inhibition of TAR RNA /cTAR DNA annealing at 20 to 50 uM preincubated with oligonucleotides for 15 mins followed by nucleocapsid addition measured after 15 mins by NAME assay
[9] = test system: Human immunodeficiency virus 1; experiment: Binding affinity to HIV-1 29-mer TAR RNA at 10 uM by ESI-MS analysis
[10] = test system: Human immunodeficiency virus 1; experiment: Binding affinity to HIV-1 cTAR DNA at 10 uM by ESI-MS analysis
[11] = test system: Human immunodeficiency virus 1; experiment: Selectivity index, ratio of melting temperature for HIV-1 29-mer TAR RNA to HIV-1 cTAR DNA
[12] = test system: Human immunodeficiency virus 1; experiment: Inhibition of recombinant full length HIV-1 nucleocapsid assessed as inhibition of TAR RNA/cTAR DNA annealing upto 100 uM preincubated with oligonucleotides for 15 mins followed by nucleocapsid addition measured after 15 mins by NAME assay
[13] = test system: Human immunodeficiency virus 1; experiment: Binding affinity to HIV-1 29-mer TAR RNA assessed as 3:1 compound-RNA complex formation at 10 uM by ESI-MS analysis
[14] = test system: Human immunodeficiency virus 1; experiment: Binding affinity to HIV-1 cTAR DNA assessed as 4:1 […] complex formation at 10 uM by ESI-MS analysis
[15] = test system: Human immunodeficiency virus 1; experiment: Binding affinity to HIV-1 29-mer TAR RNA assessed as 1:1 compound-RNA complex formation at 10 uM by ESI-MS analysis
[16] = test system: Human immunodeficiency virus 1; experiment: Binding affinity to HIV-1 cTAR DNA assessed as 2:1 […] complex formation at 10 uM by ESI-MS analysis

With `NCC(N)C(=O)NCC(=O)Nc1ccc2c(c1)C(=O)c1ccc(NC(=O)CNC(=O)C(N)CN)cc1C2=O` (centres undefined) the IC50 [1] was 3.81 µM, the Activity [2] was “Active” and the Activity [3] was “Active”. The inhibition [4] was “Active”, the Activity [5] was “Active” and the IC50 [6] was 4.22 µM. For the same molecule, the IC50 [7] was 103 µM.
With `NC[C@H]1CC[C@H](C(=O)NCC(=O)Nc2ccc3c(c2)C(=O)c2ccc(NC(=O)CNC(=O)[C@H]4CC[C@H](CN)CC4)cc2C3=O)CC1` the IC50 [1] was 9.75 µM, the Activity [2] was “inactive” and the Activity [3] was “inactive”. For the same molecule, the Activity [5] was “inactive” and the IC50 [6] was 11.3 µM.
In the case of `NCCCCC(N)C(=O)NCC(=O)Nc1ccc2c(c1)C(=O)c1ccc(NC(=O)CNC(=O)C(N)CCCCN)cc1C2=O` (centres undefined), the inhibition [8] is reported as “Active”, the IC50 [1] is reported as 1.11 µM and the Activity [2] is reported as “Active”. The Activity [9] was “Active”, the Activity [3] was “Active” and the Activity [5] was “Active”. The IC50 [6] was 2.12 µM, the Activity [10] was “Active” and the IC50 [7] was 23.5 µM. The Ratio [11] was 0.72.
With `NCCC(N)C(=O)NCC(=O)Nc1ccc2c(c1)C(=O)c1ccc(NC(=O)CNC(=O)C(N)CCN)cc1C2=O` (centres undefined) the IC50 [1] was 4.61 µM, the Activity [2] was “Active” and the Activity [3] was “Active”. For the same molecule, the inhibition [4] was “Active”, the Activity [5] was “Active” and the IC50 [6] was 3.87 µM. The IC50 [7] was 81.4 µM and the Ratio [11] was 0.97.
With `C[C@H](NC(=O)C(N)Cc1ccc(N)cc1)C(=O)Nc1ccc2c(c1)C(=O)c1ccc(NC(=O)[C@H](C)NC(=O)C(N)Cc3ccc(N)cc3)cc1C2=O` (some centres undefined) the IC50 [1] was 7.53 µM, the IC50 [6] was 7.29 µM and the inhibition [12] was “inactive”.
For `C[C@H](NC(=O)[C@H]1CC[C@H](CN)CC1)C(=O)Nc1ccc2c(c1)C(=O)c1ccc(NC(=O)[C@H](C)NC(=O)[C@H]3CC[C@H](CN)CC3)cc1C2=O`, the IC50 [1] was 14.6 µM, the IC50 [6] was 14.8 µM and the inhibition [12] was “inactive”.
With `NC1(C(=O)NCC(=O)Nc2ccc3c(c2)C(=O)c2ccc(NC(=O)CNC(=O)C4(N)CCNCC4)cc2C3=O)CCNCC1` the IC50 [1] was 5.13 µM, the Activity [2] was “Active” and the Activity [3] was “Active”. The inhibition [4] was “Active”, the Activity [5] was “Active” and the IC50 [6] was 7.79 µM. The IC50 [7] was over 100 µM.
For `NCCCC(N)C(=O)NCC(=O)Nc1ccc2c(c1)C(=O)c1ccc(NC(=O)CNC(=O)C(N)CCCN)cc1C2=O` (centres undefined), the inhibition [8] was “Active”, the IC50 [1] was 1.81 µM and the Activity [2] was “Active”. For the same molecule, the Activity [3] was “Active”, the Activity [13] was “Active” and the Activity [5] was “Active”. The IC50 [6] was 2.62 µM, the Activity [10] was “Active” and the IC50 [7] was 54.1 µM. For the same molecule, the Ratio [11] was 0.72.
In the case of `NCCC(=O)NCC(=O)Nc1ccc2c(c1)C(=O)c1ccc(NC(=O)CNC(=O)CCN)cc1C2=O`, the IC50 [1] is reported as 4.06 µM, the Activity [2] is reported as “Active” and the Activity [3] is reported as “Active”. For the same molecule, the inhibition [4] was “Active”, the Activity [5] was “Active” and the IC50 [6] was 6.42 µM. It also gave an IC50 [7] of over 100 µM.
In the case of `C[C@H](NC(=O)C(N)CCCN)C(=O)Nc1ccc2c(c1)C(=O)c1ccc(NC(=O)[C@H](C)NC(=O)C(N)CCCN)cc1C2=O` (some centres undefined), the IC50 [1] is reported as 1.93 µM, the Activity [2] is reported as “Active” and the Activity [3] is reported as “Active”. For the same molecule, the Activity [14] was “Active”, the Activity [13] was “Active” and the inhibition [4] was “Active”. For the same molecule, the Activity [5] was “Active”, the IC50 [6] was 4.91 µM and the IC50 [7] was 49.1 µM. The Ratio [11] was 0.58.
In the case of `Nc1ccc(CC(N)C(=O)NCC(=O)Nc2ccc3c(c2)C(=O)c2ccc(NC(=O)CNC(=O)C(N)Cc4ccc(N)cc4)cc2C3=O)cc1` (centres undefined), the IC50 [1] is reported as 7.78 µM, the Activity [2] is reported as “inactive” and the Activity [3] is reported as “inactive”. For the same molecule, the Activity [5] was “inactive”, the IC50 [6] was 7.72 µM and the IC50 [7] was over 100 µM. For the same molecule, the inhibition [12] was “inactive”.
For `O=C(CNC(=O)C1CCNCC1)Nc1ccc2c(c1)C(=O)c1ccc(NC(=O)CNC(=O)C3CCNCC3)cc1C2=O`, the IC50 [1] was 10.7 µM, the Activity [2] was “Active” and the Activity [3] was “Active”. For the same molecule, the Activity [15] was “Active”, the Activity [16] was “Active” and the Activity [5] was “Active”. The IC50 [6] was 10.7 µM and the inhibition [12] was “inactive”.
In the case of `C[C@H](NC(=O)C(N)CCCCN)C(=O)Nc1ccc2c(c1)C(=O)c1ccc(NC(=O)[C@H](C)NC(=O)C(N)CCCCN)cc1C2=O` (some centres undefined), the IC50 [1] is reported as 2.68 µM, the Activity [2] is reported as “Active” and the Activity [3] is reported as “Active”. For the same molecule, the Activity [14] was “Active”, the Activity [13] was “Active” and the inhibition [4] was “Active”. The Activity [5] was “Active”, the IC50 [6] was 6.61 µM and the IC50 [7] was 80.4 µM. It also gave a Ratio [11] of 0.56.
For `C[C@H](NC(=O)C(N)CN)C(=O)Nc1ccc2c(c1)C(=O)c1ccc(NC(=O)[C@H](C)NC(=O)C(N)CN)cc1C2=O` (some centres undefined), the IC50 [1] was 44.1 µM, the Activity [2] was “inactive” and the Activity [3] was “inactive”. The IC50 [6] was 67.1 µM and the inhibition [12] was “inactive”.
With `C[C@H](NC(=O)C1(N)CCNCC1)C(=O)Nc1ccc2c(c1)C(=O)c1ccc(NC(=O)[C@H](C)NC(=O)C3(N)CCNCC3)cc1C2=O` the IC50 [1] was 14.6 µM, the IC50 [6] was 40.2 µM and the inhibition [12] was “inactive”.
For `C[C@H](NC(=O)C(N)CCN)C(=O)Nc1ccc2c(c1)C(=O)c1ccc(NC(=O)[C@H](C)NC(=O)C(N)CCN)cc1C2=O` (some centres undefined), the IC50 [1] was 4.28 µM, the Activity [2] was “Active” and the Activity [3] was “Active”. For the same molecule, the Activity [5] was “Active”, the IC50 [6] was 6.9 µM and the IC50 [7] was over 100 µM. For the same molecule, the inhibition [12] was “inactive” and the Ratio [11] was 0.5.
With `C[C@H](NC(=O)CCN)C(=O)Nc1ccc2c(c1)C(=O)c1ccc(NC(=O)[C@H](C)NC(=O)CCN)cc1C2=O` the IC50 [1] was 12.7 µM, the IC50 [6] was 39.5 µM and the inhibition [12] was “inactive”.
For `C[C@H](NC(=O)C1CCNCC1)C(=O)Nc1ccc2c(c1)C(=O)c1ccc(NC(=O)[C@H](C)NC(=O)C3CCNCC3)cc1C2=O`, the IC50 [1] was 12 µM, the Activity [15] was “Active” and the Activity [16] was “Active”. For the same molecule, the IC50 [6] was 20.8 µM and the inhibition [12] was “inactive”.

From ChEMBL document CHEMBL3779894, “Synthesis and in Vitro Screening of New Series of 2,6-Dipeptidyl-anthraquinones: Influence of Side Chain Length on HIV-1 Nucleocapsid Inhibitors” (J Med Chem, 2016)
